Columns and labels:
[1] = system: neuronal cell injury caused by focal cerebral ischemia; assay: Neuroprotective activity, middle cerebral artery occlusion (intraluminal suture) with TTC staining; format: in vivo, Sprague-Dawley rats
[2] = system: ICR mice; assay: Acute toxicity test on ICR mice; format: in vivo
Protocol: (§1) The acute toxicity tests on ICR mice (mean body weight 25±5 g) and Sprague-Dawley rats (300±10 g, Jung-Ang Lab Animal Inc.) were performed using the oleic acid of the Example 1. Four group consisting of 10 mice or rats was administrated orally with 100 mg/kg, 250 mg/kg, 500 mg/kg and 1000 mg/kg of test sample or solvents (0.2[…], i.p.) respectively and observed for 2 weeks.
(§2) The acute toxicity tests on ICR mice and Sprague-Dawley rats were performed using the extract of the Example 1. Four group consisting of 10 mice or rats was administrated intraperitoneally with 25 mg/kg, 50 mg/kg, 100 mg/kg and 200 mg/kg of test sample or solvents (0.2[…], i.p.), respectively and observed for 24 hours.

[3] = system: Sprague-Dawley rats; assay: Acute toxicity test on Sprague-Dawley rats; format: in vivo
Protocol: as §1, §2

[4] = intraperitoneally 25, 50, 100 and 200 mg/kg, observed for 24 hours
[5] = orally 100, 250, 500 and 1000 mg/kg, observed for 2 weeks

## CCCCCCCC/C=C\CCCCCCCC(=O)O [oleic acid, Cis-9-octadecenoic acid]
[1]; 1 mg/kg, 10 mg/kg, 100 mg/kg, 2 h MCA occlusion, 24 hours after reperfusion, FIG. 1
  staining area with TTC (white) versus control group: smaller staining area with TTC (white) due to little damage of neuronal cell than control group
[1]; group C: 10 mg/kg
  protective effect on neuronal cell death compared with control group: 32.9%
[1]; group D: 100 mg/kg
  protective effect on neuronal cell death compared with control group: 64.9%
[2]; [4]
  treatment-related effects on mortality, clinical signs, body weight changes and gross findings: no treatment-related effects
[2]; [5]
  treatment-related effects on mortality, clinical signs, body weight changes and gross findings: no treatment-related effects
[3]; [4]
  treatment-related effects on mortality, clinical signs, body weight changes and gross findings: no treatment-related effects
[3]; [5]
  treatment-related effects on mortality, clinical signs, body weight changes and gross findings: no treatment-related effects

— patent US8193245B2, “Composition comprising oleic acid and the use thereof” (University-Industry Cooperation Group of Kyung Hee …, priority 2005, dated 2012)
